Reference: US20150283212A1, “ORAL CALCITONIN COMPOSITIONS AND APPLICATIONS THEREOF” (Novartis AG, priority 2007, published 2015)

Assay: Pharmacokinetics of orally administered salmon calcitonin combined with 5-CNAC
Format: in vivo
From the text: An oral form of calcitonin would improve patient acceptance and facilitate improved patient compliance by providing a more acceptable, alternative delivery route for peptide therapy. […] Salmon calcitonin appears rapidly in the plasma following oral administration, with median tmax at about 0.25 hr post-dose. Following tmax the plasma concentration fell rapidly. […] Plasma sCT concentrations increased as sCT doses increased. However, with high variability in available data, dose-proportional increase in AUC could not be confirmed.

effect of food on bioavailability of sCT (administered with food): markedly reduces
accumulation (AUC after multiple-dose vs single-dose) (oral): No significant accumulation
gastrointestinal (GI) absorption of the sCT (oral, combination with 5-CNAC, rodents, monkeys and humans): marked increase
Tmax (plasma, following oral administration, post-dose, read-out: median tmax): ~15 min
Structure (SMILES): CC(C)C[C@H](NC(=O)[C@H](CCCCN)NC(=O)CNC(=O)[C@H](CC(C)C)NC(=O)[C@@H](NC(=O)[C@@H]1CSSC[C@H](N)C(=O)N[C@@H](CO)C(=O)N[C@@H](CC(N)=O)C(=O)N[C@@H](CC(C)C)C(=O)N[C@@H](CO)C(=O)N[C@@H]([C@@H](C)O)C(=O)N1)C(C)C)C(=O)N[C@@H](CO)C(=O)N[C@@H](CCC(N)=O)C(=O)N[C@@H](CCC(=O)O)C(=O)N[C@@H](CC(C)C)C(=O)N[C@@H](Cc1c[nH]cn1)C(=O)N[C@@H](CCCCN)C(=O)N[C@@H](CC(C)C)C(=O)N[C@@H](CCC(N)=O)C(=O)N[C@H](C(=O)N[C@@H](Cc1ccc(O)cc1)C(=O)N1CCC[C@H]1C(=O)N[C@@H](CCCNC(=N)N)C(=O)N[C@H](C(=O)N[C@@H](CC(N)=O)C(=O)N[C@H](C(=O)NCC(=O)N[C@@H](CO)C(=O)NCC(=O)N[C@H](C(=O)N1CCC[C@H]1C(N)=O)[C@@H](C)O)[C@@H](C)O)[C@@H](C)O)[C@@H](C)O [salmon calcitonin]
